Key:
[1] = test system: orexin/ataxin 3 mice (Tg mice); experiment: Test Example 4: alertness effect and cataplexy-like behavior inhibiting effect by dark period oral administration to orexin/ataxin 3 mice; format: in vivo, mouse; details: for sleep latency: before lights off, solvent 0.21 hour; for DREM latency: solvent 1.16 hours, assessed up to maximum 4 hours
Excerpt: The experimental animals used were orexin/ataxin 3 mice (orexin/ataxin-3 Tg/+ (hereunder referred to as “Tg mice”), Hara et al., Neuron, 30, 345-54, 2001) with a C57BL/6 genetic background, with wild type mice (hereunder referred to as “WT mice”) of the same litter as the control. Electroencephalogram and electromyogram measuring electrodes were surgically embedded into 12-week-old mice (+2 weeks) under isoflurane anesthesia. After surgery, and following conditioning to the illumination cycle and experimentation procedure, electroencephalogram and electromyogram measurement were carried out and mice with proper electroencephalogram and electromyogram recording were supplied for the experiment. The solvent (0 mg/kg) or a specimen (solution of compound (I) dissolved in the solvent (0.3, 1 or 3 mg/kg)) was orally administered 30 to 15 minutes before lighting was turned off. The solvent used was a 0.1 mol/L hydrochloric acid solution containing 5% (v/v) DMSO and 5% (v/v) Kolliphor^R EL. The electroencephalogram and electromyogram were recorded for about 24 hours, from 1 hour before lighting was turned off. The mice were repeatedly used, with a washout period of 2 days or longer. The electroencephalogram and electromyogram data obtained for each mouse were used to assess the sleep stage every epoch (10 seconds), using sleep analysis software (SleepSign: Kissei Comtec Co., Ltd.), up to a maximum of 4 hours. For the purpose of this experiment, cataplexy-like symptoms were defined as REM sleep appearing immediately after wakefulness (direct transitions from wake to REM sleep (DREM)) for a contiguous period of 4 epochs or longer. DREM in mice is an analog of cataplexy (Exp Neurol. 2009:217:46-54). The time until initial sleep appeared after lighting out for each mouse (sleep for contiguous 8 epochs or longer, excluding DREM) (sleep latency) and the time until initial DREM appeared (DREM latency) were measured. The numbers of mice were 8 in the solvent-administered group and 14 in the compound (I)-administered group. The sleep latency in a disease control group and a compound (I)-administered group were compared by a Dunnet-type multiple comparison test following survival time analysis in consideration of the number of experiments and use of the same individuals, with a significance level of 5% at both ends for each. The DREM latency in the normal control group and disease control group were compared by survival time analysis in consideration of the number of experiments and use of the same individuals. Cases with significance in the statistical test for the disease control group and the compound (I)-administered group were compared by a Dunnet-type multiple comparison test following survival time analysis in consideration of the number of experiments and use of the same individuals, with a significance level of 5% at both ends for each.

hOX1R = biological target: T1, hOX1R (Homo sapiens, UniProt O43613); experiment: Test Example 1-1: activating activity for OX1R (intracellular calcium, HEK293 with forced expression); format: cell-based; details: calcium fluorescence, 3×10^-10 M to 1×10^-7 M, 10 nM OX-A as 100%
T1 construct: expressed in transfected cells; host or cells: HEK293
T1 sequence (O43613 1-425): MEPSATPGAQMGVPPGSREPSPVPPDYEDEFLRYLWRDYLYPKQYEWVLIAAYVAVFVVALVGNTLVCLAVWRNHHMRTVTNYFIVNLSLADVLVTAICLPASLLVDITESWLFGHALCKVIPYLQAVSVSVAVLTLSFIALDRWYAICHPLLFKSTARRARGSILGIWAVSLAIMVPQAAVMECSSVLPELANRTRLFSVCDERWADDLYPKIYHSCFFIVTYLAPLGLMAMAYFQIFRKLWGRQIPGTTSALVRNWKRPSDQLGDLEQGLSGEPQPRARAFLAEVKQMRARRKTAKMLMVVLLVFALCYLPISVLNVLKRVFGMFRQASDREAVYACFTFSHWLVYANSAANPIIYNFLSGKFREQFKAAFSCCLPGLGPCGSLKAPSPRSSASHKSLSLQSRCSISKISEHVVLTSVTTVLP
Method: Human Embryonic Kidney cells 293 (HEK293) cells with forced expression of hOX1R and hOX2R were seeded in a 384-well microplate (Greiner) at 10,000 per well and cultured for 24 hours in high-glucose-DMEM (FujiFilm Corp.-Wako Pure Chemical Industries, Ltd.) containing added 10% FBS (Thermo Scientific) and 1% Penicillin-Streptomycin (FujiFilm Corp.-Wako Pure Chemical Industries, Ltd.). After removing the medium, there was added 40 μL of assay buffer (20 mM HEPES (Sigma-Aldrich Japan, KK.), Hank's Balanced Salt Solution (Gibco), 0.1% BSA (Sigma-Aldrich Japan, KK.), 0.1% Pluronic F-127 (Biotium, Inc.)) containing Calcium 4 dye (Molecular Device Corporation) and 2.5 mM probenecid (Sigma-Aldrich Japan, KK.), and the mixture was incubated for 60 minutes. After further adding 20 μL of assay buffer, 20 μL of assay buffer containing the test compound was added and reaction was initiated. Change in intracellular calcium ion concentration by the reaction was measured based on the fluorescence intensity ratio in terms of the fluorescence value with dual wavelength excitation at 480 nm and 540 nm, using FDSS7000 (Hamamatsu Photonics, K.K.). The test compound was dissolved in DMSO to 10 mM, and diluted with assay buffer to a final concentration of from 3×10^−10 M to 1×10^−7 M (DMSO final concentration of 0.1%). […]

Male C57BL/6NCrl mice = experiment: Test Example 2: increase in spontaneous movement; format: in vivo, mouse; details: 10 mg/kg orally, measured 2 hours after administration, control group = 100%
Method: Increased movement in mice is an indicator of increased alertness time, higher body temperature and augmented cardiovascular parameters, as well as heightened alertness. In this test example, the alertness effect was evaluated by measuring spontaneous movement of the mice. Male C57BL/6NCrl mice (18-19 weeks old, Charles River Laboratories, Japan Inc., 4 mice in each group) were used for the experiment. Spontaneous movement was measured by using a movement measuring device (VersaMax Open Field, AccuScan Instruments, Inc.), irradiating infrared rays from the side sections of the measuring cage, and quantifying the number of times that the mice passed through the irradiated rays. After placing the mice in the measuring cage and conditioning for 3 hours, compound (I) was orally administered (10 mg/kg). Spontaneous movement was measured 2 hours after administration. The mice in the compound (I)-administered group were administered a solution of compound (I) dissolved in 0.1 mol/L hydrochloric acid containing 5% (v/v) DMSO and 5% (v/v) Kolliphor^R EL. For the control group, solvent alone without compound (I) was administered to the mice.
Spontaneous movement was represented as a percentage for the compound (I)-administered group, with spontaneous movement in the control group as 100%.

[2] = test system: C57BL/6 line wild type (WT) male mice; experiment: Test Example 3: alertness effect (sleep latency, EEG/EMG) by dark period oral administration to wild type mice; format: in vivo, mouse; details: before lights off, solvent 0.23 hour
Method: The experimental animals used were C57BL/6 line wild type (WT) male mice. Electroencephalogram and electromyogram measuring electrodes were surgically embedded into 13-week-old mice under isoflurane anesthesia. After surgery, and following conditioning to the illumination cycle and experimentation procedure, electroencephalogram and electromyogram measurement were carried out and mice with proper electroencephalogram and electromyogram recordings were supplied for the experiment. The solvent (0 mg/kg) or a solution of compound (I) dissolved in the solvent (1, 3 or 10 mg/kg) was orally administered 30 to 15 minutes before lighting was turned off. The solvent used was a 0.1 mol/L hydrochloric acid solution containing 5% (v/v) DMSO and 5% (v/v) Kolliphor^R EL. The electroencephalogram and electromyogram were recorded for about 24 hours, from 1 hour before lighting was turned off. The mice were repeatedly used, with a washout period of 2 days or longer. The electroencephalogram and electromyogram data obtained for each mouse were used to assess the sleep stage every epoch (10 seconds), using sleep analysis software (SleepSign: Kissei Comtec Co., Ltd.). […] Using 16 mice in each administered group, the sleep latency in a solvent-administered group (control group) and a compound (I)-administered group were compared by a Dunnet-type multiple comparison test following survival time analysis in consideration of the number of experiments and use of the same individuals, with a significance level of 5% at both ends for each.

Row | Compound | sleep latency ([1]; 0.3 mg/kg oral) [h] | sleep latency ([1]; 1 mg/kg oral, significant) [h] | sleep latency ([1]; 3 mg/kg oral, significant) [h] | DREM latency ([1]; 0.3 mg/kg oral, significant) [h] | DREM latency ([1]; 1 mg/kg oral, significant) [h] | DREM latency ([1]; 3 mg/kg oral, significant) [h] | EC50 (hOX1R) [nM] | Spontaneous movement (% of Control) (Male C57BL/6NCrl mice) | sleep latency ([2]; 1 mg/kg oral) [h] | sleep latency ([2]; 3 mg/kg oral, significant) [h] | sleep latency ([2]; 10 mg/kg oral, significant) [h]
1 | CO[C@@H]1CN(c2ncc(F)cn2)CC[C@@H]1[C@@H]1C[C@H]2CC[C@@H](C1)N2[C@@H](C(N)=O)C1CC1 [Example 1, (2R)-2-cyclopropyl-2-{(1R,3S,5S)-3-[(3S,4R)-1-(5-fluoropyrimidin-2-yl)-3-methoxypiperidin-4-yl]-8-azabicyclo[3.2.1]octan-8-yl}acetamide] | 0.31 | 0.64 | 2.42 |  |  |  |  |  |  |  | 
2 | CO[C@@H]1CN(c2ncc(F)cn2)CC[C@@H]1[C@@H]1C[C@H]2CC[C@@H](C1)N2[C@@H](C(N)=O)C1CC1 [Compound (I), (2R)-2-cyclopropyl-2-{(1R,3S,5S)-3-[(3S,4R)-1-(5-fluoropyrimidin-2-yl)-3-methoxypiperidin-4-yl]-8-azabicyclo[3.2.1]octan-8-yl}acetamide] |  |  |  | 1.50 | 2.26 | 4.00 | > 100 | 865 % of Control | 0.28 | 0.44 | 2.07

Reference: patent publication US20250051322A1, “CRYSTAL OF S[…], SALTS OF S[…], AND CRYSTALS THEREOF” (Eisai R&D Management Co., Ltd., priority 2022, published 2025)
